Experimental data from US20190309074A1, “DEGLYCOSYLATED ANTIBODY SPECIFICALLY BINDING TO CLEC14A AND USES THEREOF” (WOORI TECHNOLOGIES CORPORATION, priority 2016, published 2019).
Blank lines part the entries; values can stand above or below the molecule they belong to.

How the values were obtained:
HUVECs = experiment: HUVEC viability (cell counting Kit-8); format: cell-based, human; details: 2 days
Method: In order to evaluate effects of deglyco C1 IgG on toxicity of endothelial cells, after treatment with deglyco C1 IgG, viability of HUVECs was measured. Viability was measured in accordance with the manufacturer's manual through cell counting Kit-8 (#CK04-13, Dojindo Laboratories, Kumamoto, Japan).

[1] = test system: VEGF-dependent blood vessel growth in rat aorta; experiment: ex vivo rat aortic ring assay; details: cultured in combination with VEGF
Method: In order to further investigate effects of deglyco C1 IgG on VEGF-dependent angiogenesis, ex vivo rat aortic ring assay was conducted in the presence or absence of deglyco C1 IgG and bevacizumab. Blood vessels were almost not grown in the rat aorta in endothelial basal medium (EBM), whereas most blood vessels were grown in the rat aorta under VEGF expression conditions.

U87 human glioma = experiment: U87 tumor growth; format: in vivo; details: measured weekly for one month
HCT116/Beva cells = experiment: Matrigel plug angiogenesis assay, CD31 microvessel density; format: in vivo; details: single dose of 5 mg/kg, 14 days
Method: (§1) Matrigel plug angiogenesis assay was conducted in the presence of deglyco C1 IgG or bevacizumab with a single dose of 5 mg/kg or the absence thereof using HCT116 human colorectal cancer cells and bevacizumab-applied HCT116 human colorectal cancer cells (HCT116 and HCT116/Beva). 14 days later, the Matrigel plug was removed, and immunohistochemistry was conducted on CD31 and microvascular markers. A microvessel density was measured by quantifying CD31 positive per field in an image each obtained by a confocal microscope.

[2] = test system: HCT116 human colorectal cancer cells; experiment: as above; format: in vivo; details: single dose of 5 mg/kg, 14 days
Method: as §1

U87 human glioma cells = experiment: tumor cell-derived Matrigel plug angiogenesis assay; format: in vivo, mouse; details: single dose of 10 mg/kg, 2 weeks, nude mice
Method: (§2) In order to investigate in vivo effects of deglyco C1 IgG on tumor angiogenesis, tumor cell-derived Matrigel plug angiogenesis assay was conducted on thymus-removed nude mice. SNU182- and CFPAC-1 cells and U87 human glioma cells containing Matrigel were transplanted into thymus-removed nude mice in the presence of deglyco C1 IgG and bevacizumab with a single dose of 10 mg/kg or in the absence thereof. 2 weeks later, the Matrigel plug was removed and the total hemoglobulin content of each group was measured with an ELISA reader.

SNU182 cells = experiment: as above; format: in vivo, mouse; details: single dose of 10 mg/kg, 2 weeks, nude mice
Method: as §2

CFPAC-1 cells = experiment: as above; format: in vivo, mouse; details: single dose of 10 mg/kg, 2 weeks, nude mice
Method: as §2

[3] = test system: VEGF-dependent microvessel formation; experiment: mouse Matrigel plug assay, VEGF-dependent microvessel formation; format: in vivo
Method: In order to observe in vivo efficacies of deglyco C1 IgG on VEGF-dependent angiogenesis, a mouse Matrigel model was established, hemoglobin level was measured as a marker of microvessel formation, and inhibitory activities against microvessel formation of deglyco C1 IgG and bevacizumab were compared by a mouse Matrigel plug assay.

[4] = biological target: T1, human CLEC14a on human umbilical vein endothelial cells (HUVECs) (human, UniProt Q86T13 22-490); experiment: cell ELISA on HUVECs coated on the plate
T1 construct: whole, on cells; also called CLEC14a on HUVEC surfaces
T1 sequence (looked up): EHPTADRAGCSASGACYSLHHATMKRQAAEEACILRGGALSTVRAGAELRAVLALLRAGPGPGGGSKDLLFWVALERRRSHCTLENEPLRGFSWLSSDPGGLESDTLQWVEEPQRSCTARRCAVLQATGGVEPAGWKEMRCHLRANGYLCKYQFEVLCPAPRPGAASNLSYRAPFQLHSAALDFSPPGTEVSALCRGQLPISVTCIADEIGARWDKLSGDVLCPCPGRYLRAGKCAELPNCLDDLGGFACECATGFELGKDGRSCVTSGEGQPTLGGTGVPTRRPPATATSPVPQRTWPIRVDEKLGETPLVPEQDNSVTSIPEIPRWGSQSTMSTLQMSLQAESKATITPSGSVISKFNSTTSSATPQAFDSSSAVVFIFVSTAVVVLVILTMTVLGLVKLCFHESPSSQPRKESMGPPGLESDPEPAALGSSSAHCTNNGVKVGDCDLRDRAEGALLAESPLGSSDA
Method: In order to analyze action mechanisms of deglyco C1 IgG at a molecule-scale, specifically, in angiogenesis, HUVECs were treated with hclec14a-CTLD-Fc-HRP (HRP-labeled hclec14a-CTLD-Fc) in the absence or presence of an increasing concentration of parent antibody IgG or deglyco C1 IgG.

hclec14a-ECD-myc [5] = biological target: T2, hclec14a-ECD-myc (human, UniProt Q86T13 22-397); experiment: ELISA, hclec14a-CTLD-Fc-HRP with hclec14a-ECD
T2 construct: extracellular domain; Purified protein; also called extracellular domain of human clec14a; not shown: myc tag
T2 sequence (looked up): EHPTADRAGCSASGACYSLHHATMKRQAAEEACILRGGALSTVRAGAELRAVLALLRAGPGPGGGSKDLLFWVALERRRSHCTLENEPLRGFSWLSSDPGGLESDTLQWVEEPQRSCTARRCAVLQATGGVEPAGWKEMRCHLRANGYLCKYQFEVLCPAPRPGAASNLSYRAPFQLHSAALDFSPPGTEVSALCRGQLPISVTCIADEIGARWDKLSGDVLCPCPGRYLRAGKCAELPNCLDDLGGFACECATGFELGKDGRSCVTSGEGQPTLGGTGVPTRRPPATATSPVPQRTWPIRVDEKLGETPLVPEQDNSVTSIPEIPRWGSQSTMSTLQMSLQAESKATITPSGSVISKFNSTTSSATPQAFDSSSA
Method: In addition, hclec14a-CTLD-Fc-HRP was incubated together with purified hclec14a-ECD in the presence of an increasing concentration of parent antibody IgG or deglyco C1 IgG, or in the absence thereof.

hclec14a-ECD-myc [6] = biological target: T2, hclec14a-ECD-myc; experiment: biolayer interferometry, Octet RED96
mclec14a-CTLD-Fc = biological target: T3, mclec14a-CTLD-Fc (mouse, UniProt Q8VCP9 31-172, limits assumed); experiment: ELISA on mclec14a-CTLD-Fc
T3 construct: domain: C-type lectin-like domain (CTLD); also called mouse clec14a-CTLD-Fc; mouse CTLD; not shown: Fc
T3 sequence (looked up): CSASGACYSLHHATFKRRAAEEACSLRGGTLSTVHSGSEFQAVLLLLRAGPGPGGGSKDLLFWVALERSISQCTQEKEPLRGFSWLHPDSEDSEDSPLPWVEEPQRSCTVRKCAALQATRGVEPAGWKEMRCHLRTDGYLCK

hclec14a-ECD-myc [7] = biological target: T2, hclec14a-ECD-myc; experiment: biolayer interferometry (Octet RED96), curves at 62.5, 31.25, 15.625 and 7.8125 nM
[8] = biological target: T4, mouse CLEC14a on mouse aortic endothelial cells (MAECs) (mouse, UniProt Q8VCP9 22-459); experiment: flow cytometry on MAEC
T4 construct: whole, on cells
T4 sequence (looked up): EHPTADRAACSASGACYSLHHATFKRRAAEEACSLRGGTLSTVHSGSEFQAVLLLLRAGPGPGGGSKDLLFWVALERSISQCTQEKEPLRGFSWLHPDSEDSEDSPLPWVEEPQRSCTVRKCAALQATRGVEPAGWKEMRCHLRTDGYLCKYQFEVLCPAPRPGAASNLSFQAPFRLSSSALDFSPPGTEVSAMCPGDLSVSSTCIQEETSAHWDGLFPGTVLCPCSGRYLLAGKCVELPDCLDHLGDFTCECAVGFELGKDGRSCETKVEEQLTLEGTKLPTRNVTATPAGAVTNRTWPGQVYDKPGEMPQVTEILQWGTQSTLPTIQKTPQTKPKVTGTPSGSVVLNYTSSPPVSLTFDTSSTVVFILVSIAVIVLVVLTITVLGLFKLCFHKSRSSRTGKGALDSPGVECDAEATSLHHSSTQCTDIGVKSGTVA
Method: In order to identify cross-species reactivity of the optimized antibodies, HUVECs (human umbilical vein endothelial cells) and MAECs (mouse aortic endothelial cells) were each cultured, the two cell groups were treated with 20 ug/ml of the parent antibody (original C1), deglyco C1, and clones 1, 13 and 16, and whether or not binding ability exists on the surface of two types of cells was identified by flow cytometry.

Molecule: O=c1[nH]cc(F)c(=O)[nH]1 [Opti 5-FU, 5-fluorouracil, reference compound]
viability of HUVECs (HUVECs): significantly reduced viability

Molecule: bevacizumab [reference compound]
number of blood vessels grown in the rat aorta [1]: reduced the number of blood vessels grown in the rat aorta
tumor size of U87 cells (U87 human glioma): significantly reduces the tumor sizes
microvessel formation (CD31 positive per field), HCT116/Beva (HCT116/Beva cells): not suppressed
microvessel formation (CD31 positive per field), HCT116 [2]: significantly reduced microvessel formation ability
hemoglobin content, U87-derived (U87 human glioma cells): significantly reduced hemoglobin
hemoglobin content, SNU182-derived (SNU182 cells): significantly reduced hemoglobin
hemoglobin content, CFPAC-1-derived (CFPAC-1 cells): significantly reduced hemoglobin
hemoglobin content (microvessel formation) [3]: significantly reduced a hemoglobin content

Second part, the molecule after the results:

binding result [4]: binds
binding result (hclec14a-ECD-myc [5]): binds
B1: hclec14a-CTLD-Fc (Fc fusion, human, UniProt Q86T13 31-172, looked up)
chain: CSASGACYSLHHATMKRQAAEEACILRGGALSTVRAGAELRAVLALLRAGPGPGGGSKDLLFWVALERRRSHCTLENEPLRGFSWLSSDPGGLESDTLQWVEEPQRSCTARRCAVLQATGGVEPAGWKEMRCHLRANGYLCK
notes: domain: C-type lectin-like domain (CTLD); also called human clec14a-CTLD-Fc; human CTLD; not shown: Fc

Kd (hclec14a-ECD-myc [6]): 6 nM
binding result (mclec14a-CTLD-Fc): binds
Kd (hclec14a-ECD-myc [7]): 6.07 nM
koff (hclec14a-ECD-myc [7]): 0.000297 s⁻¹
kon (hclec14a-ECD-myc [7]): 49000 M⁻¹ s⁻¹
binding result [8]: binds
B2: deglyco C1 IgG (antibody, V domains shown)
VH: EVQLVESGGGLVQPGGSLRLSCAVSGFTFSGYDMSWIRQAPGKGLEWVAGIYPDGGNTYYADSVKGRFTISRDDSKNTFYLQMNSLRAEDTAVYYCARGATWWVLGPFDYWGQGTLVTVSS
VL: DIQLTQSPSSLSASVGDRVTITCTGSSSNIGRCGVTWYQQKPGKAPKLLIYADSHRPSGVPSRFSGSGSGTDFTLTISSLQPEDFATYYCGAWDDSLSGYVFGQGTKVEIKR
notes: IgG expressed in HEK293 cells; In some assays conjugated with HRP; also called Deg C1; deglyco C1 IgG-HRP (HRP-conjugated form)
